Data published in US20260042759A1, “INHIBITOR CONTAINING BICYCLIC DERIVATIVE, PREPARATION METHOD THEREFOR AND USE THEREOF” (SHANGHAI HANSOH BIOMEDICAL CO., LTD., priority 2019, published 2026).

Experiments:
RET = molecular target: T1, RET (Homo sapiens, UniProt P07949); assay: HTRF kinase assay, RET wild-type; format: biochemical; conditions: ATP at Km
T1 construct: purchased Carna 08-159
From the text: • RET enzyme was purchased from Carna Company, and the article number was 08-159; • RET M918T enzyme was purchased from Carna Company, and the article number was 08-508; • KIF5B-RET was purchased from SignalChem Company, the article number was R02-19FG-05; • CCDC6-RET was purchased from SignalChem Company, the article number was R02-19BG-05; • RET V804M enzyme was purchased from Thermofisher Company, and the article number was PV6223; • RET V804L enzyme was purchased from Thermofisher Company, and the article number was PV4397; • HTRF KinEASE-TK kit was purchased from Cisbio Company, and the article number was 62TK0PEC; • ATP was purchased from Thermofisher Company, and the article number was PV3227; • 384-well plate was purchased from PerkinElmer Company, and the article number was 6007290.
In this experiment, the homogeneous time-resolved fluorescence (HTRF) method was used for the detection of compounds on RET kinase activity.

KDR kinase = molecular target: T2, KDR kinase (Homo sapiens, UniProt P35968); assay: HTRF kinase assay, KDR; format: biochemical; conditions: for IC50: HTRF, ATP at Km; for Ratio (KDR/RET): KDR IC50 / RET IC50
T2 construct: purchased Carna 08-191
From the text: • KDR kinase was purchased from Carna Company, and the article number was 08-191; • HTRF KinEASE-TK kit was purchased from Cisbio Company, and the article number was 62TK0PEC; • ATP was purchased from Thermofisher Company, and the article number was PV3227; • 384-well plate was purchased from PerkinElmer Company, and the article number was 6007290.
In this experiment, the homogeneous time-resolved fluorescence (HTRF) method was used for the detection of compounds on KDR kinase activity.

[1] = Balb/C mouse pharmacokinetics, oral; format: in vivo; conditions: Balb/C mice, p.o., 5 mg/kg, plasma
Method: The pharmacokinetic behavior of the following compound embodiments, administered orally at a dose of 5 mg/kg in plasma in mice, was studied using Balb/C mice as test animals.
Balb/C Mouse 6/embodiment, male, Shanghai Jiesijie Laboratory Animal Co., Ltd, Animal Production License No. (SCXK (Shanghai) 2013-0006 N0.311620400001794).
Balb/C mice, males; p.o. after overnight fasting, respectively, at a dose of 5 mg/kg, administered in a volume of 10 mL/kg.
0.5% CMC-Na(1% Tween80) was dissolved by ultrasound, and prepared into clear solution or uniform suspension.
Before and after administration, 0.1 mL of blood was collected from mice at 0, 0.5, 1, 2, 4, 6, 8 and 24 hours by orbital collection, placed in EDTA-K2 tubes, centrifuged at 6000 rpm at 4° C. for 6 min to separate plasma, and stored at −80° C.
40 μL of plasma sample was precipitated by adding 160 μL of acetonitrile, mixed and centrifuged at 3500×g for 5-20 min.
100 μL of the supernatant solution after treatment was taken to analyze the concentration of the test compound by LC/MS/MS.
The main pharmacokinetic parameters were calculated using WinNonlin 6.1 and the results of the mouse pharmacokinetic experiments were shown in Table 8 below.

TT xenograft tumor = assay: Subcutaneous xenograft tumor model of human thyroid cancer cell TT; format: in vivo, BALB/c nude mice; conditions: for Tumor inhibition rate TGI d 22 / Tumor volume (mm^3, mean ± SEM) d 22: oral BID 21 days; for Tumor volume (mm^3, mean ± SEM) d 0: oral BID
Method: TT cells were cultured in vitro in a monolayer under the following conditions: F-12K medium with 20% heat-inactivated fetal bovine serum and 1% penicillin-streptomycin double antibodies at 37° C. and 5% CO2. Trypsin-EDTA was used twice a week digestion for digestion treatment passaging. When cells were in an exponential growth period, cells were collected, counted and inoculated.
TT cells were collected when they were full in a logarithmic growth period, ensuring over 90% of vitality. 0.2 mL cell suspension containing about 1×10^7 of TT cells (cells suspended in basic F-12K medium and added with 50% Matrigel) was subcutaneously inoculated into the right back tumor of each mouse […].
• 1. The day of grouping was day 0 (DO). The interval of BID administration was 6-8 h/18-16 h. The first dose was given in the afternoon of day DO and the last dose was given in the morning of day D21. • 2. Dosing volume: […] according to the body weight of nude mice.
Animal grouping: Before administration, the animals were weighed and the tumor volume was measured. The mice were randomly grouped according to tumor volume (randomized grouping design) with 5 animals per group.
Experimental index: The diameter of tumor was measured by vernier caliper twice a week. The tumor volume was calculated by the formula: V=a×b^2/2, a and b denote the long and short diameter of the tumor, respectively. The tumor suppressive efficacy of the compounds was evaluated by TGI (%). TGI (%)=(1−(TVTreatment/Dx−TVTreatment/D1)/(TVControl/Dx−TVControl/D1))×[…].
T test was used for comparison between two groups. One-way ANOVA was used for comparison among three or more groups. If there were significant differences in F values, multiple comparisons should be made after ANOVA analysis. GraphPadPrism 5.0 was used for all data analysis.

[2] = test system: TT cells (MTC, RET C634W); assay: TT cell proliferation (CellTiter-Glo); format: cell-based, human
Method: When TT cells were cultured to the appropriate fusion level, TT cells were collected, and the cells were adjusted to the appropriate cell concentration using complete medium, and the cell suspension was spread in a 96-well plate, 90 µL per well, and placed in a 37° C., 5% CO2 incubator overnight; and compound solutions of different concentrations were prepared using DMSO and culture medium; and a solvent control was set, the compound solution was added to a 96-well plate, 10 µL per well, at 37° C. in a 5% CO2 incubator for 72 hours; CellTiter-Glo solution was added thereto and the mixture was mixed well by shaking, incubated for 10 min in the dark, and read by BioTek Synergy H1 microplate reader.
The luminescence signal values were used to calculate the inhibition rate, the concentration and the inhibition rate were fitted to a nonlinear regression curve using Graphpad Prism software.

[3] = test system: phosphorylation of ERK, a downstream signal factor of TT cells; assay: ERK phosphorylation in TT cells (Western Blot); format: cell-based, human; conditions: for inhibition of the phosphorylation level of ERK in TT cells, overall: 3.7-300 nM, 2 hours
Method: In this experiment, the inhibitory effect of compounds on the phosphorylation level of ERK, a downstream signaling factor in TT cells, was measured by Western Blot method. When TT cells were cultured to the appropriate fusion degree, the cells were collected and adjusted to a suitable cell concentration using complete medium, the cell suspension was spread in a 24-well plate, 1 mL per well, and placed in a 37° C., 5% CO2 incubator overnight, and compound dilutions of different concentrations (3.7 nM, 11.1 nM, 33.3 nM, 100 nM, 300 nM) were added at 37° C. and acted for 2 hours; the cell supernatant was aspirated, washed one time with PBS, and the proteins were collected with lysate; after protein denaturation, Western blot experiments were performed: performing protein electrophoresis at 120V for approximately 75 minutes, followed by 45 minutes of transfer to PVDF membranes at 10V with a semi-dry transfer instrument, enclosing at 5% BSA for 1 hour at room temperature, and then PVDF membranes were cut into strips of appropriate size and incubated with prepared antibody dilutions overnight at 4° C. and washed 6 times with TBST, followed by imaging with goat anti-mouse secondary antibody and sheep anti-rabbit secondary antibody for 1 hour at room temperature, and the membrane was washed 6 times with TBST for imaging in the Biorad ChemiDoc™ MP Imaging System.
The inhibitory effect of compounds on ERK phosphorylation levels in TT cells at different concentrations was determined by detecting protein bands.

T1 sequence (P07949 29-1114): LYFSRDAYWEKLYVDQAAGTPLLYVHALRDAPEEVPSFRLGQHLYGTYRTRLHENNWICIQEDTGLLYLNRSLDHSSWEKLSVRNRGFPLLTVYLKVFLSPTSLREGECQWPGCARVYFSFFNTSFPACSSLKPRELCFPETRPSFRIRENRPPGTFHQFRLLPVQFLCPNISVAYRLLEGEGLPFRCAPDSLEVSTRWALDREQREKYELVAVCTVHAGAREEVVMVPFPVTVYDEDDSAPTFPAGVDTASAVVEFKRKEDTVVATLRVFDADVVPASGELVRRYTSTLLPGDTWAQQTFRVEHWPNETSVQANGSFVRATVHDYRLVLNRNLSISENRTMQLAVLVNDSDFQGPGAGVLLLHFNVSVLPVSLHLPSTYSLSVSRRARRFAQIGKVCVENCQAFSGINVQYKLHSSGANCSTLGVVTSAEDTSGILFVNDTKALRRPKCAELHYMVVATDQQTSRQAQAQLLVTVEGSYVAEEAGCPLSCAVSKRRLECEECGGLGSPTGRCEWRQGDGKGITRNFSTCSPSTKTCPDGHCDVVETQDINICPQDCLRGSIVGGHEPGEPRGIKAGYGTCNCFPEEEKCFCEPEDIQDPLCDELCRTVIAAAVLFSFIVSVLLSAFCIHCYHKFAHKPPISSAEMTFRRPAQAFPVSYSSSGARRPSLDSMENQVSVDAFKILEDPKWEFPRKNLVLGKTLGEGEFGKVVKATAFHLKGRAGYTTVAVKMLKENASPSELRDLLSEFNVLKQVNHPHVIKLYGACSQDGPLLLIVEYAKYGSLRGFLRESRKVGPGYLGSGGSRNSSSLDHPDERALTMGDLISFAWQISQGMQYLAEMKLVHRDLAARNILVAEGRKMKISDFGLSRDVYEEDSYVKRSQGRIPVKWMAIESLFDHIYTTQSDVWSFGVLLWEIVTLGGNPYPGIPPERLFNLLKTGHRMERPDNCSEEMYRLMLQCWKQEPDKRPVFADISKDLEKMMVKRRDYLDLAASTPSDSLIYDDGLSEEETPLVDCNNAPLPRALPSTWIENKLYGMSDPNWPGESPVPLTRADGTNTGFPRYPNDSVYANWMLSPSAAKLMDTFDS
T2 sequence (P35968 20-1356): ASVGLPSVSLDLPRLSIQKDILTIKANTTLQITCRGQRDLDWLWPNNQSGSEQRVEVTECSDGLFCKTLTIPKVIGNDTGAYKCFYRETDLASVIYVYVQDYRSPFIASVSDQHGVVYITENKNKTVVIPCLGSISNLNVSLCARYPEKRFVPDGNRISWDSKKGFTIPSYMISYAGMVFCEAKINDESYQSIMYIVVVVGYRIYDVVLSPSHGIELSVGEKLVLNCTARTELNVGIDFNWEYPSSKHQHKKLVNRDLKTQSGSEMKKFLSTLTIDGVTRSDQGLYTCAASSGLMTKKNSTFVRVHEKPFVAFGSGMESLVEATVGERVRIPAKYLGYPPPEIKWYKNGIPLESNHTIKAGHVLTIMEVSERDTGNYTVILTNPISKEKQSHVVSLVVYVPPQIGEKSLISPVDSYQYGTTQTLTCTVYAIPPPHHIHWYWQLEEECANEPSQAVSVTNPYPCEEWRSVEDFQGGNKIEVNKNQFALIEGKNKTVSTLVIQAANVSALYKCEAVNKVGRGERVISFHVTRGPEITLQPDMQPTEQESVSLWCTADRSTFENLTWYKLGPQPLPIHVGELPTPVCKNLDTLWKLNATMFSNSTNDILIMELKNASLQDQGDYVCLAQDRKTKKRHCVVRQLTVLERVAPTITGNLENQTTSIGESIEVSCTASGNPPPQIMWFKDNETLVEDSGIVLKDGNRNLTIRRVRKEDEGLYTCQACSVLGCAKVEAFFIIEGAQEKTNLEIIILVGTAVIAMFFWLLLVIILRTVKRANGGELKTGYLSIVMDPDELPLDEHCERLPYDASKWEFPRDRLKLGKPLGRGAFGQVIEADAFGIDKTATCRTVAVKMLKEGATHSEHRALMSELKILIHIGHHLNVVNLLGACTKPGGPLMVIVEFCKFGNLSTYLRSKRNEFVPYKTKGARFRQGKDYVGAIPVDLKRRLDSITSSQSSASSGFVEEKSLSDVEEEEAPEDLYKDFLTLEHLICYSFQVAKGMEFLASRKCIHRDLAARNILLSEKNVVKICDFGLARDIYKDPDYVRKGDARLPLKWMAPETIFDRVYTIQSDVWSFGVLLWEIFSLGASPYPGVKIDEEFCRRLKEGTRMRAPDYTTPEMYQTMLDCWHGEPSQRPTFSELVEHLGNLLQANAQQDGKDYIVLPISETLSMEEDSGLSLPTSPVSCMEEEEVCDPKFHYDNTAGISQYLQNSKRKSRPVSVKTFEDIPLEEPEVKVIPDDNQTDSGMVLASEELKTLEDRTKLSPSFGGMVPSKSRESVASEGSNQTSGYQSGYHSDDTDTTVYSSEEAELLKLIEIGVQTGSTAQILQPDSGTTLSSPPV

IC50 (RET)	IC50 (KDR kinase)	Ratio (KDR/RET) (KDR kinase)	Compound	further results
1.22 nM	1.6 nM	1.3	COc1ccc(OC2CCN(c3ccc(-c4cc(C#CC(C)(C)O)cn5ncc(C#N)c45)cn3)CC2)cn1 [Embodiment 32, 6-(3-Hydroxy-3-methylbut-1-yn-1-yl)-4-(6-(4-((6-methoxypyridin-3-yl)oxo)piperidin-1-yl)pyridin-3-yl)pyrazolo[1,5-a]pyridine-3-carbonitrile]	
			COc1ccc(CN2C3CC2CN(c2ccc(-c4cc(OCC(C)(C)C#N)cn5ncc(C#N)c45)cn2)C3)cn1 [Embodiment 34, 6-(2-Cyano-2-methylpropoxy)-4-(6-(6-((6-methoxypyridin-3-yl)methyl)-3,6-diazabicyclo[3.1.1]heptan-3-yl)pyridin-3-yl)pyrazolo[1,5-a]pyridine-3-carbonitrile]	Half-life t1/2 [1]: 4.2 h
1.3 nM	17 nM	14	CC(C)(O)COc1cc(-c2ccc(N3CCC(N)(C(=O)N4CCc5ccccc54)CC3)nc2)c2c(C#N)cnn2c1 [Embodiment 62, 4-(6-(4-Amino-4-(indoline-1-carbonyl)piperidin-1-yl)pyridin-3-yl)-6-(2-hydroxy-2-methylpropoxy)pyrazolo[1,5-a]pyridine-3-carbonitrile]	
3.6 nM	124 nM	35	Cc1ccc(F)cc1C(=O)NC1(C)CC2CN(c3ccc(-c4cc(OCC(C)(C)O)cn5ncc(C#N)c45)cn3)CC2C1 (stereo not drawn) [Embodiment 75, N-(2-(5-(3-cyano-6-(2-hydroxy-2-methylpropoxy)pyrazolo[1,5-a]pyridin-4-yl)pyridin-2-yl)-5-methyloctahydrocyclopenta[c]pyrrol-5-yl)-5-fluoro-2-methylbenzamide]	
			COc1ncc(CN2C3CC2CN(c2ccc(-c4cc(C#CC(C)(C)O)cn5ncc(C#N)c45)cn2)C3)cc1F [Embodiment 94, 4-(6-(6-((5-Fluoro-6-methoxypyridin-3-yl)methyl)-3,6-diazabicyclo[3.1.1]heptan-3-yl)pyridin-3-yl)-6-(3-hydroxy-3-methylbut-1-yn-1-yl)pyrazolo[1,5-a]pyridine-3-carbonitrile]	Tumor inhibition rate TGI d 22 (TT xenograft tumor; 30 mg/kg): 99.64%; Tumor volume (mm^3, mean ± SEM) d 22 (TT xenograft tumor; 30 mg/kg): 203.56 ± 31.74 mm^3; Tumor volume (mm^3, mean ± SEM) d 0 (TT xenograft tumor; 30 mg/kg): 199.73 ± 24.07 mm^3
			COc1ccc(CN2C3CC2CN(c2ccc(-c4cc(OCC56CC(C#N)(C5)C6)cn5ncc(C#N)c45)cn2)C3)cn1 [Embodiment 138, 6-((3-Cyanobicyclo[1.1.1]pentan-1-yl)methoxy)-4-(6-(6-((6-methoxypyridin-3-yl)methyl)-3,6-diazabicyclo[3.1.1]heptan-3-yl)pyridin-3-yl)pyrazolo[1,5-a]pyridine-3-carbonitrile]	IC50 ([2]; 72 hours): 25.1 nM
			C#C[C@@](C)(O)COc1cc(-c2ccc(N3CC4CC(C3)N4Cc3ccc(OC)nc3)nc2)c2c(C#N)cnn2c1 [Embodiment 152, 6-(((R)-2-hydroxy-2-methylbut-3-yn-1-yl)oxy)-4-(6-(6-((6-methoxypyridin-3-yl)methyl)-3,6-diazabicyclo[3.1.1]heptan-3-yl)pyridin-3-yl)pyrazolo[1,5-a]pyridine-3-carbonitrile]	inhibition of the phosphorylation level of ERK in TT cells, overall [3]: significantly inhibit
			C#C[C@](C)(O)COc1cc(-c2ccc(N3CC4CC(C3)N4Cc3ccc(OC)nc3)nc2)c2c(C#N)cnn2c1 [Embodiment 153, 6-(((S)-2-hydroxy-2-methylbut-3-yn-1-yl)oxy)-4-(6-(6-((6-methoxypyridin-3-yl)methyl)-3,6-diazabicyclo[3.1.1]heptan-3-yl)pyridin-3-yl)pyrazolo[1,5-a]pyridine-3-carbonitrile]	inhibition of ERK phosphorylation ([3]; 11.1 nM, 2 hours at 37° C., TT cells): inhibit half of the ERK phosphorylation level; inhibition of the phosphorylation level of ERK in TT cells, overall [3]: significantly inhibit
			COc1ccc(CN2C3CC2CN(c2ccc(-c4cc(N5CC(C)(C#N)C5)cn5ncc(C#N)c45)cn2)C3)cn1 [Embodiment 168, 6-(3-Cyano-3-methylazetidin-1-yl)-4-(6-(6-((6-methoxypyridin-3-yl)methyl)-3,6-diazabicyclo[3.1.1]heptan-3-yl)pyridin-3-yl)pyrazolo[1,5-a]pyridine-3-carbonitrile]	Tumor inhibition rate TGI d 22 (TT xenograft tumor; 10 mg/kg): 129.77%; Tumor volume (mm^3, mean ± SEM) d 22 (TT xenograft tumor; 10 mg/kg): 144.14 ± 8.95 mm^3; Tumor volume (mm^3, mean ± SEM) d 0 (TT xenograft tumor; 10 mg/kg): 205.23 ± 16.57 mm^3

Compound	IC50 (RET)	IC50 (KDR kinase)	Ratio (KDR/RET) (KDR kinase)	further results
6-((1-Imino-1-hydroxy-1l6-thietan-3-yl)methoxy)-4-(6-(6-((6-methoxypyridin-3-yl)methyl)-3,6-diazabicyclo[3.1.1]heptan-3-yl)pyridin-3-yl)pyrazolo[1,5-a]pyridine-3-carbonitrile [Embodiment 85]	1.3 nM	69 nM	55	
COc1ccc(CN2C3CC2CN(c2ccc(-c4cc(/C=C/C(C)(C)O)cn5ncc(C#N)c45)cn2)C3)cn1 [Embodiment 127]	0.26 nM	6.5 nM	25	IC50 ([2]; Homo sapiens, TT, 72 h): 5.87 nM
